Measurements as given in PubChem BioAssay (NCI).
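Assay format: 96-well plates, 48-hour exposure. GI50 marks 50% less growth. Definition used: TGI = concentration required for complete inhibition of growth.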

Key:
Assay in all cases: inhibition of tumour cell growth, NCI panel, 48 h
SF-539 CNS = tested on: SF-539 CNS
SN12C renal = tested on: SN12C renal
EKVX NSCLC = tested on: EKVX NSCLC
786-0 renal = tested on: 786-0 renal
HL-60(TB) leukemia = tested on: HL-60(TB) leukemia
COLO 205 colon = tested on: COLO 205 colon
HCT-15 colon = tested on: HCT-15 colon
SK-MEL-2 melanoma = tested on: SK-MEL-2 melanoma
OVCAR-5 ovarian = tested on: OVCAR-5 ovarian
MALME-3M melanoma = tested on: MALME-3M melanoma

| Compound | TGI (SF-539 CNS) [µM] | TGI (SN12C renal) [µM] | TGI (EKVX NSCLC) [µM] | TGI (786-0 renal) [µM] | TGI (HL-60(TB) leukemia) [µM] | TGI (COLO 205 colon) [µM] | TGI (HCT-15 colon) [µM] | TGI (SK-MEL-2 melanoma) [µM] | TGI (OVCAR-5 ovarian) [µM] | TGI (MALME-3M melanoma) [µM] | GI50 (SF-539 CNS) [µM] | GI50 (SN12C renal) [µM] | GI50 (EKVX NSCLC) [µM] | GI50 (786-0 renal) [µM] | GI50 (SK-MEL-2 melanoma) [µM] | GI50 (HL-60(TB) leukemia) [µM] | GI50 (COLO 205 colon) [µM] | GI50 (MALME-3M melanoma) [µM] | GI50 (HCT-15 colon) [µM] | GI50 (OVCAR-5 ovarian) [µM] |
| --- | --- | --- | --- | --- | --- | --- | --- | --- | --- | --- | --- | --- | --- | --- | --- | --- | --- | --- | --- | --- |
| COc1ccc2c(c1O)C(=O)C(CCC(=O)O)CC2 (configuration not stated) | > 100 | > 100 | > 100 | > 100 | > 100 | > 100 | > 100 | – | – | – | – | – | – | – | – | – | – | – | – | – |
| COc1cc(OC)c2ssc3c(OC)cc(OC)c4ssc1c2-c43 | > 100 | > 100 | > 100 | > 100 | – | > 100 | > 100 | > 100 | > 100 | > 100 | – | – | – | – | – | – | – | – | – | – |
| NC(=NCCCC1(c2ccccc2)CCCC1)Nc1ccc(Cl)cc1 | 3.23 | 3.37 | 3.57 | 3.13 | 3.67 | 3.44 | 3.29 | 3.52 | – | 3.66 | 1.75 | 1.77 | 1.87 | 1.68 | 1.95 | 1.73 | 1.69 | 1.69 | 1.75 | – |
| N=C(N)/N=C(\N)c1c(-c2cc(O)ccc2O)nc2sccn12 | 38.4 | 39.7 | > 100 | 38.9 | – | > 100 | 74.8 | > 100 | 33.1 | 35.4 | 20.4 | 19.4 | 98.6 | 19.9 | 44.9 | – | 38.7 | 15.9 | 26 | 18.3 |
| CCOC(=O)Cc1nc2ccccc2s1 | 36.6 | 30.5 | > 100 | 32.9 | 43.9 | > 100 | – | 36.5 | 57 | 31.2 | – | – | – | – | – | – | – | – | – | – |
| CC(/C=C/C(=O)c1sc(-n2nc(-c3ccccc3)cc2-c2ccccc2)nc1C)=C\c1ccccc1 | > 100 | > 100 | > 100 | > 100 | > 100 | – | 57.6 | > 100 | – | > 100 | – | – | 9.73 | – | – | – | – | – | – | – |
| COc1ccc(-c2nsc3c2NC(=O)CC3c2ccc(F)cc2)cc1 (configuration not stated) | 67.8 | > 100 | – | > 100 | > 21.1 | 8.39 | > 100 | 12 | > 100 | > 100 | 3.56 | > 23.4 | – | 15.2 | 3.22 | 0.598 | 2.49 | 10.3 | 2.16 | 5.94 |
| COC(=O)NC1(NC(=O)OC)NC(=O)c2cc(OC)c(OC)cc2N1 | 60.8 | > 100 | > 100 | > 100 | – | > 100 | > 100 | 67 | > 100 | – | – | – | – | – | – | – | – | – | – | – |
| COc1c2c3ccccc3nc-2n(C)c2ccccc12 | 25.9 | 35.9 | 57.2 | 40.5 | 47.6 | 49.4 | 50.6 | > 100 | > 100 | – | 8.83 | 7.27 | 13.7 | 6.54 | 36.8 | 9.88 | 6.73 | – | 5.29 | 8.43 |
| O=C1/C(=C\c2ccc(F)cc2)CN(C(=O)c2ccc([N+](=O)[O-])cc2)C/C1=C\c1ccc(F)cc1 | 10.2 | 6.55 | – | 4.32 | > 50.2 | 12.7 | 4.31 | > 100 | 49.5 | 45.9 | 2.93 | 2.19 | – | 1.89 | 20.4 | 5.07 | 3.17 | 8.22 | 1.31 | 4.6 |
| NCCCCCCCCn1c2c(c3ccccc3c1=O)C(=O)c1ccccc1-2 | 8.62 | 11.3 | 44.7 | 56.4 | 6.23 | – | 10.2 | 6.98 | 7.89 | 8.86 | 2.84 | 3.45 | 17.4 | 21 | 2.83 | 2.34 | – | 2.85 | 3.26 | 2.67 |
| O=Nc1ccc(O)c2ccccc12 | 4.05 | 3.22 | 4.43 | 12.6 | – | 3.92 | 4.98 | 3.72 | 4.21 | 3.62 | 2.11 | 1.38 | 1.88 | 4.1 | 1.7 | – | 1.93 | 1.61 | 2.14 | 2.13 |
| CO/[N+]([O-])=C\C(=O)N/C=C/C(=O)O | > 100 | > 100 | > 100 | > 100 | > 100 | > 100 | > 100 | – | > 100 | > 100 | – | – | – | – | – | – | – | – | – | – |
| O=C(O)C1=C(C(=O)Nc2ccccc2)C2C=CC1C2 (configuration not stated) | > 100 | > 100 | > 100 | > 100 | > 100 | > 100 | > 100 | – | > 100 | > 100 | – | – | – | – | – | – | – | – | – | – |
| COc1cccc(Cn2c(-c3nonc3N)nc3ccccc32)c1 | 0.696 | > 100 | – | > 100 | 13.8 | 10.1 | > 100 | 15.4 | > 68 | > 95.1 | 0.237 | 0.751 | – | 0.569 | 0.353 | 0.298 | 0.393 | 0.425 | 0.399 | 1.17 |
| Fc1ccc(-c2nn3c(CNc4ccccc4)nnc3s2)cc1 | > 100 | 90.8 | > 100 | > 100 | > 100 | > 100 | > 100 | – | > 100 | 94.6 | 33.6 | 22.7 | 27.8 | 56.2 | – | > 100 | 11.2 | 21.2 | 45 | 30.2 |
